The values below come from US10206944B2, “Chondroitin for use in medicine” (ALTERGON S.A., priority 2012, dated 2019).

Type in all cases: cell-based
In experiment [1] the test system is primary cultures of human chondrocytes. The experiment is described as follows: Chondrocyte proliferation test (time-lapse videomicroscopy). Conditions: 1% w/v. From the text:
Primary cultures of human chondrocytes isolated from healthy human cartilage samples obtained during rhinoplasty operations were used as model system. The tissue fragments just removed in the operating theatre were immersed in an 0.9% w/w NaCl saline solution and rapidly transferred to the laboratory for extraction of chondrocytes. Operating in sterile conditions under laminar-flow hood, the tissue sample was transferred to a petri dish where it was cut into small pieces using sterile tweezers and scalpels. The pieces of cartilage were then immersed in 0.01M phosphate buffer pH 7.4 (PBS) containing type 1 collagenase (3 mg/mL), dispase (4 mg/mL) and gentamicin (5 μL/mL of an 80 mg/mL solution) to ensure sterility during enzymatic digestion. The pieces were left to incubate overnight in a Falcon tube at 37° C., under stirring. After 16-18 h the solution was filtered through a 70 μm filter, transferring the parts adhering to the Falcon tube onto the filter and washing with 7-8 mL of DMEM 10% FBS. The filtrate was centrifuged at 1,500 rpm for 7 min, the supernatant was removed and the pellet was suspended in 10 mL of DMEM 10% FBS containing fungizone (5 μL/mL of an 80 mg/mL solution) and gentamicin (5 μL/mL of an 80 mg/mL solution). The cell suspension thus obtained was plated in a 25 cm^2 flask and incubated at 37° C. in a 5% CO2 atmosphere, with changes of medium every 2 or 3 days until complete confluency of the cell culture. The cells, which have the characteristic appearance of chondrocytes (small swollen cells with a slightly elongated shape), were detached from the base of the flask, counted and incubated again in fresh medium. Starting with 0.4 g of cartilage, about 2*10^6 cells were generally obtained in the second growth phase. Knowledge of the number of growth cycles to which the culture has previously been subjected is of crucial importance for primary cells; especially in the case of chondrocytes a cell differentiation process is observed wherein, as the growth phases proceed, the cells increasingly present an appearance morphologically similar to fibroblasts. For this reason the entire study is conducted with primary chondrocyte cultures at the 2nd-4th growth phase.
The effect of chondroitin on chondrocyte proliferation was evaluated with time-lapse videomicroscopy, as described in Example 1. The study was performed comparatively with chondrocytes stimulated with chondroitin sulphate, using non-stimulated chondrocytes as control system. 20*10^3 cells were seeded per well of a 24-well multiwell plate. The cells were treated with chondroitin or chondroitin sulphate with an endotoxin content ≤0.1 EU/mg at a concentration of 1% w/v in DMEM 10% FBS; in the controls, the cells were seeded in DMEM 10% FBS. The experiments were conducted in triplicate and analysed for a total time ranging between 96 and 120 h. Image analysis, conducted with Image Pro-plus 5.1 analysis software, allowed a precise number of cells to be obtained with a manual count at times pre-set by the operator, in order to construct a growth curve over time. The data analysis indicates (Table 2) that the growth of the cells treated with chondroitin was better than that of the untreated cells and the cells treated with chondroitin sulphate.

The test system of a further experiment is Collagen Type I. Description: Real-Time PCR gene expression in human chondrocytes: type I collagen. The settings on record: for Fold Expression, Collagen Type I: 1% w/v, ratio to untreated control. As to the method: To evaluate the biological effects of chondroitin on human chondrocyte cultures, the expression of a set of genes considered key to establishing the phenotype, and suitable markers for evaluating the quality of the tissue generated, was determined. The study was conducted on chondrocytes prepared from human cartilage, as reported in Example 2, the cells being grown in the presence of chondroitin or chondroitin sulphate. Using a standard procedure, 5*10^4 cells per well were seeded in a 24-well multiwell plate. The chondrocytes were grown in DMEM containing 1% w/v of chondroitin or chondroitin sulphate (endotoxin content ≤0.1 EU/mg). The cells were stimulated for 4, 7 and 10 days (Ishak et al., International J. of Pediatric Otorhinolaryngology, 2011, 75: 835-840), after which the RNA was extracted with Trizol Reagent, as described in the kit manual (Life Technologies Ltd, Milan, Italy). A qualitative morphological analysis of the cell culture was also conducted at the various times, in parallel with RNA extraction, by observing the corresponding samples at 4, 7 and 10 days under the optical microscope. The cells seeded at the three different times were observed under the microscope, and the images that best represented the cell growth conditions were acquired using a time-lapse videomicroscopy workstation. After RNA extraction, reverse transcription was performed with a total of 1 μg RNA and then with amplification by Real-Time PCR of genes which are specific markers for chondrocytes (Table 3).
Genes connected with matrix production, such as aggrecan, type I collagen, type II collagen and the Sox9 gene, the expression of which is closely correlated with the expression of type II collagen, were analysed as specific markers for differentiation and characterisation of chondrocytes. (Akiyama H., Mod Rheumatol., 2008, 18(3): 213-9; Yang et al., J. of Orthopaedic Res. 2011).
The gene expression of said markers on human chondrocytes cultured in basic medium (control) and with chondroitin treatment (C) or chondroitin sulphate treatment (CS) was analysed on cell cultures in the second and third growth phases.
The results of the gene expression analysis were reported as the average of at least 3 independent experiments for tests conducted in the presence of C or CS, on cells in phases 2 and 3.

Another experiment concerns type II collagen. Description: Phenotype analysis with immunohistochemical tests on human chondrocytes. As to the method:
The evaluation of the chondrocyte phenotype of fresh cells extracted from human cartilage tissue samples and after 4, 7 and 10 days' growth in medium containing chondroitin or chondroitin sulphate was conducted with immunohistochemical tests, using the Envision+(DaKo) kit which uses an antibody for type II collagen, considered to be a specific marker for chondrocyte differentiation (Stokes et al., Biochem. J., 2001, 360:461-470).

Take “chondroitin sulphate [CS, reference compound]”: the Number of chondrocytes in experiment [1] (time 0 h) is listed as 7.0 ± 0.5 Cells × 10^4; in experiment [1] (time 20 h), 10.0 ± 1.2 Cells × 10^4; in experiment [1] (time 40 h), 14.0 ± 1.8 Cells × 10^4; in experiment [1] (time 60 h), 18.0 ± 1.6 Cells × 10^4; in experiment [1] (time 80 h) it was 21.8 ± 1.7 Cells × 10^4; in experiment [1] (time 100 h), 25.0 ± 2.5 Cells × 10^4. Moreover, the “Fold Expression, Collagen Type I” value with Collagen Type I (phase II, 4 g) was determined as 1.20 ± 0.56; with Collagen Type I (phase II, 7 g), 1.44 ± 0.08; in the experiment on Collagen Type I (phase II, 10 g) it was 1.36 ± 0.05; in the experiment with Collagen Type I (phase III, 4 g), 0.34 ± 0.01; in the experiment on Collagen Type I (phase III, 7 g), 2.42 ± 0.88; in the experiment on Collagen Type I (phase III, 10 g), 1.09 ± 0.45. The “positivity to type II collagen” value in the experiment on type II collagen (after 4 days' treatment) is on record as “strong positivity to type II collagen”.

On to chondroitin, for which the Number of chondrocytes stood at 7.0 ± 0.7 Cells × 10^4 in experiment [1] (time 0 h); 10.2 ± 0.9 Cells × 10^4 in experiment [1] (time 20 h); 15.3 ± 1.3 Cells × 10^4 in experiment [1] (time 40 h); 22.0 ± 1.8 Cells × 10^4 in experiment [1] (time 60 h); 27.0 ± 2.0 Cells × 10^4 in experiment [1] (time 80 h); 32.0 ± 2.1 Cells × 10^4 in experiment [1] (time 100 h). The “Fold Expression, Collagen Type I” value in the experiment with Collagen Type I (phase II, 4 g) was found to be 1.23 ± 0.29; with Collagen Type I (phase II, 7 g), 1.03 ± 0.52; with Collagen Type I (phase II, 10 g), 0.67 ± 0.20; in the experiment on Collagen Type I (phase III, 4 g), 0.24 ± 0.01; in the experiment with Collagen Type I (phase III, 7 g) it was 0.85 ± 0.49; in the experiment on Collagen Type I (phase III, 10 g), 0.59 ± 0.13. The “reduction in expression of type I collagen” value in the experiment on Collagen Type I (growth phase 2, long incubation times, versus control) stood at 30%. For the same substance, the “positivity to type II collagen” value in the experiment with type II collagen (after 4 days' treatment) is “strong positivity to type II collagen”; in the experiment on type II collagen (longer times (7 and 10 days)), “only maintained for longer times (7 and 10 days) in the cells treated with chondroitin”.
